Numbers after ± are expanded uncertainties.
Experiment: xn = mol fraction of the nth substance listed
Conditions: Liquid

CCOS(=O)(=O)[O-].CCn1cc[n+](C)c1 [1-ethyl-3-methylimidazolium ethyl sulfate] + CCO
mass density [kg/m3]
Conditions	100 kPa	2500 kPa	5000 kPa	10000 kPa	15000 kPa	20000 kPa	25000 kPa	30000 kPa	35000 kPa
333.15 K, x1 = 0.05056	826.91 ± 0.71	829.15 ± 0.78	831.49 ± 0.84	835.97 ± 0.98	840.22 ± 1.1	844.27 ± 1.3	848.14 ± 1.4	851.85 ± 1.6	855.41 ± 1.7
333.15 K, x1 = 0.103	885.77 ± 0.62	887.83 ± 0.65	889.93 ± 0.69	893.99 ± 0.77	897.89 ± 0.85	901.61 ± 0.92	905.17 ± 0.99	908.61 ± 1.1	911.93 ± 1.1
333.15 K, x1 = 0.1247	907.28 ± 0.58	909.17 ± 0.61	911.19 ± 0.64	915.1 ± 0.7	918.84 ± 0.75	922.44 ± 0.8	925.91 ± 0.85	929.24 ± 0.89	932.47 ± 0.93
333.15 K, x1 = 0.2126	977.1 ± 0.5	978.86 ± 0.48	980.64 ± 0.49	984.14 ± 0.49	987.5 ± 0.5	990.73 ± 0.48	993.88 ± 0.48	996.92 ± 0.47	999.88 ± 0.46
333.15 K, x1 = 0.2919	1026.55 ± 0.48	1027.68 ± 0.49	1029.31 ± 0.5	1032.48 ± 0.52	1035.56 ± 0.55	1038.53 ± 0.59	1041.42 ± 0.64	1044.25 ± 0.69	1046.98 ± 0.75
333.15 K, x1 = 0.3185	1039.85 ± 0.49	1041.25 ± 0.5	1042.83 ± 0.51	1045.92 ± 0.55	1048.93 ± 0.6	1051.83 ± 0.65	1054.66 ± 0.71	1057.43 ± 0.78	1060.13 ± 0.85
333.15 K, x1 = 0.4198	1083.92 ± 0.54	1085.39 ± 0.57	1086.84 ± 0.61	1089.7 ± 0.7	1092.49 ± 0.78	1095.2 ± 0.9	1097.84 ± 0.99	1100.42 ± 1.1	1102.94 ± 1.3
333.15 K, x1 = 0.4847	1106.62 ± 0.57	1107.91 ± 0.62	1109.29 ± 0.66	1112.04 ± 0.77	1114.72 ± 0.89	1117.29 ± 1	1119.85 ± 1.2	1122.34 ± 1.3	1124.77 ± 1.5
333.15 K, x1 = 0.5713	1132.56 ± 0.62	1133.8 ± 0.7	1135.1 ± 0.7	1137.7 ± 0.9	1140.25 ± 1	1142.73 ± 1.2	1145.17 ± 1.4	1147.56 ± 1.6	1149.9 ± 1.8
333.15 K, x1 = 0.6827	1159.67 ± 0.66	1160.86 ± 0.73	1162.12 ± 0.81	1164.6 ± 1	1167.03 ± 1.2	1169.4 ± 1.4	1171.73 ± 1.6	1174 ± 2	1176.25 ± 2
333.15 K, x1 = 0.7919	1181.63 ± 0.7	1182.51 ± 0.78	1183.7 ± 0.9	1186.07 ± 1.1	1188.4 ± 1.3	1190.67 ± 1.5	1192.91 ± 1.8	1195.12 ± 2	1197.28 ± 2.3
333.15 K, x1 = 0.9317	1203.54 ± 0.74	1204.68 ± 0.84	1205.83 ± 0.94	1208.1 ± 1.2	1210.35 ± 1.4	1212.54 ± 1.7	1214.7 ± 2	1216.82 ± 2.2	1218.92 ± 2.5
343.15 K, x1 = 0.05056	818.25 ± 0.73	820.66 ± 0.79	823.11 ± 0.87	827.83 ± 1	832.27 ± 1.2	836.51 ± 1.4	840.54 ± 1.5	844.41 ± 1.6	848.12 ± 1.8
343.15 K, x1 = 0.103	877.67 ± 0.63	879.77 ± 0.67	881.99 ± 0.71	886.23 ± 0.8	890.27 ± 0.88	894.14 ± 0.96	897.85 ± 1	901.43 ± 1.1	904.85 ± 1.2
343.15 K, x1 = 0.1247	899.5 ± 0.6	901.47 ± 0.62	903.69 ± 0.66	907.82 ± 0.72	911.68 ± 0.78	915.39 ± 0.84	918.99 ± 0.89	922.46 ± 0.94	925.77 ± 0.99
343.15 K, x1 = 0.2126	969.67 ± 0.49	971.48 ± 0.49	973.32 ± 0.5	976.91 ± 0.5	980.38 ± 0.51	983.71 ± 0.51	986.96 ± 0.5	990.09 ± 0.5	993.12 ± 0.49
343.15 K, x1 = 0.2919	1019.38 ± 0.47	1020.57 ± 0.48	1022.23 ± 0.48	1025.5 ± 0.5	1028.64 ± 0.53	1031.72 ± 0.56	1034.69 ± 0.6	1036.01 ± 0.64	1040.41 ± 0.7
343.15 K, x1 = 0.3185	1032.6 ± 0.5	1034.03 ± 0.49	1035.67 ± 0.5	1038.87 ± 0.53	1041.94 ± 0.57	1044.93 ± 0.62	1047.86 ± 0.67	1050.69 ± 0.73	1053.46 ± 0.8
343.15 K, x1 = 0.4198	1076.98 ± 0.53	1078.52 ± 0.56	1080 ± 1	1082.95 ± 0.67	1085.8 ± 0.8	1088.59 ± 0.85	1091.31 ± 0.95	1093.96 ± 1.1	1096.54 ± 1.2
343.15 K, x1 = 0.4847	1099.67 ± 0.56	1100.97 ± 0.6	1102.41 ± 0.65	1105.21 ± 0.74	1107.95 ± 0.85	1110.61 ± 0.97	1113.23 ± 1.1	1115.78 ± 1.3	1118.28 ± 1.4
343.15 K, x1 = 0.5713	1125.7 ± 0.6	1126.98 ± 0.66	1128.32 ± 0.71	1131.01 ± 0.84	1133.6 ± 1	1136.16 ± 1.1	1138.67 ± 1.3	1141.1 ± 1.5	1143.48 ± 1.7
343.15 K, x1 = 0.6827	1152.86 ± 0.65	1154.1 ± 0.7	1155.37 ± 0.79	1157.89 ± 0.94	1160.38 ± 1.1	1162.8 ± 1.3	1165.19 ± 1.6	1167.53 ± 1.8	1169.82 ± 2
343.15 K, x1 = 0.7919	1175 ± 1	1175.81 ± 0.77	1177.05 ± 0.85	1179.48 ± 1	1181.84 ± 1.3	1184.18 ± 1.5	1186.47 ± 1.7	1188.72 ± 2	1190.93 ± 2.2
343.15 K, x1 = 0.9317	1196.87 ± 0.73	1198.02 ± 0.82	1199.21 ± 0.92	1201.52 ± 1.1	1203.82 ± 1.4	1206.06 ± 1.6	1208.26 ± 1.9	1210.44 ± 2.2	1212.58 ± 2.4
